Columns and labels:
Type in all cases: functional
CCRF-CEM = test: Growth inhibition of human CCRF-CEM cells at 10^-5 M incubated for 48 hrs by sulforhodamine B assay; conditions: read-out: GI
HL-60(TB) = test: Growth inhibition of human HL-60(TB) cells at 10^-5 M incubated for 48 hrs by sulforhodamine B assay; conditions: HL-60, 48 h, read-out: GI
MOLT-4 = test: Growth inhibition of human MOLT4 cells at 10^-5 M incubated for 48 hrs by sulforhodamine B assay; conditions: MOLT-4, 48 h, read-out: GI
A549 = test: Growth inhibition of human A549/ATCC cells at 10^-5 M incubated for 48 hrs by sulforhodamine B assay; conditions: A549, 48 h, read-out: GI
EKVX = test: Growth inhibition of human EKVX cells at 10^-5 M incubated for 48 hrs by sulforhodamine B assay; conditions: read-out: GI
HOP-62 = test: Growth inhibition of human HOP62 cells at 10^-5 M incubated for 48 hrs by sulforhodamine B assay; conditions: HOP-62, 48 h, read-out: GI
NCI-H226 = test: Growth inhibition of human NCI-H226 cells at 10^-5 M incubated for 48 hrs by sulforhodamine B assay; conditions: NCI-H226, 48 h, read-out: GI
NCI-H460 = test: Growth inhibition of human NCI-H460 cells at 10^-5 M incubated for 48 hrs by sulforhodamine B assay; conditions: NCI-H460, 48 h, read-out: GI
NCI-H522 = test: Growth inhibition of human NCI-H522 cells at 10^-5 M incubated for 48 hrs by sulforhodamine B assay; conditions: NCI-H522, 48 h, read-out: GI
COLO 205 = test: Growth inhibition of human COLO205 cells at 10^-5 M incubated for 48 hrs by sulforhodamine B assay; conditions: COLO 205, 48 h, read-out: GI
HCC 2998 = test: Growth inhibition of human HCC2998 cells at 10^-5 M incubated for 48 hrs by sulforhodamine B assay; conditions: HCC 2998, 48 h, read-out: GI
HCT-116 = test: Growth inhibition of human HCT116 cells at 10^-5 M incubated for 48 hrs by sulforhodamine B assay; conditions: HCT-116, 48 h, read-out: GI
HCT-15 = test: Growth inhibition of human HCT15 cells at 10^-5 M incubated for 48 hrs by sulforhodamine B assay; conditions: HCT-15, 48 h, read-out: GI
HT-29 = test: Growth inhibition of human HT-29 cells at 10^-5 M incubated for 48 hrs by sulforhodamine B assay; conditions: HT-29, 48 h, read-out: GI
KM12 = test: Growth inhibition of human KM12 cells at 10^-5 M incubated for 48 hrs by sulforhodamine B assay; conditions: KM12, 48 h, read-out: GI
SW-620 = test: Growth inhibition of human SW620 cells at 10^-5 M incubated for 48 hrs by sulforhodamine B assay; conditions: SW-620, 48 h, read-out: GI
SF-268 = test: Growth inhibition of human SF268 cells at 10^-5 M incubated for 48 hrs by sulforhodamine B assay; conditions: SF-268, 48 h, read-out: GI
SF-295 = test: Growth inhibition of human SF295 cells at 10^-5 M incubated for 48 hrs by sulforhodamine B assay; conditions: SF-295, 48 h, read-out: GI
SNB-75 = test: Growth inhibition of human SNB75 cells at 10^-5 M incubated for 48 hrs by sulforhodamine B assay; conditions: SNB-75, 48 h, read-out: GI
U-251 = test: Growth inhibition of human U251 cells at 10^-5 M incubated for 48 hrs by sulforhodamine B assay; conditions: U-251, 48 h, read-out: GI
LOX IMVI = test: Growth inhibition of human LOXIMVI cells at 10^-5 M incubated for 48 hrs by sulforhodamine B assay; conditions: read-out: GI
MDA-MB-435 = test: Growth inhibition of human MDA-MB-435 cells at 10^-5 M incubated for 48 hrs by sulforhodamine B assay; conditions: MDA-MB-435, 48 h, read-out: GI
SK-MEL-28 = test: Growth inhibition of human SK-MEL-28 cells at 10^-5 M incubated for 48 hrs by sulforhodamine B assay; conditions: SK-MEL-28, 48 h, read-out: GI
SK-MEL-5 = test: Growth inhibition of human SK-MEL-5 cells at 10^-5 M incubated for 48 hrs by sulforhodamine B assay; conditions: SK-MEL-5, 48 h, read-out: GI
UACC-257 = test: Growth inhibition of human UACC257 cells at 10^-5 M incubated for 48 hrs by sulforhodamine B assay; conditions: UACC-257, 48 h, read-out: GI
IGROV-1 = test: Growth inhibition of human IGROV1 cells at 10^-5 M incubated for 48 hrs by sulforhodamine B assay; conditions: IGROV-1, 48 h, read-out: GI
OVCAR-4 = test: Growth inhibition of human OVCAR4 cells at 10^-5 M incubated for 48 hrs by sulforhodamine B assay; conditions: OVCAR-4, 48 h, read-out: GI
OVCAR-5 = test: Growth inhibition of human OVCAR5 cells at 10^-5 M incubated for 48 hrs by sulforhodamine B assay; conditions: OVCAR-5, 48 h, read-out: GI
NCI/ADR-RES = test: Growth inhibition of human NCI/ADR-RES cells at 10^-5 M incubated for 48 hrs by sulforhodamine B assay; conditions: read-out: GI
786-0 = test: Growth inhibition of human 786-0 cells at 10^-5 M incubated for 48 hrs by sulforhodamine B assay; conditions: 786-0, 48 h, read-out: GI
ACHN = test: Growth inhibition of human ACHN cells at 10^-5 M incubated for 48 hrs by sulforhodamine B assay; conditions: read-out: GI
CAKI-1 = test: Growth inhibition of human Caki1 cells at 10^-5 M incubated for 48 hrs by sulforhodamine B assay; conditions: CAKI-1, 48 h, read-out: GI
UO-31 = test: Growth inhibition of human UO31 cells at 10^-5 M incubated for 48 hrs by sulforhodamine B assay; conditions: UO-31, 48 h, read-out: GI
DU-145 = test: Growth inhibition of human DU145 cells at 10^-5 M incubated for 48 hrs by sulforhodamine B assay; conditions: DU-145, 48 h, read-out: GI
MCF7 = test: Growth inhibition of human MCF7 cells at 10^-5 M incubated for 48 hrs by sulforhodamine B assay; conditions: MCF7, 48 h, read-out: GI
Hs-578T = test: Growth inhibition of human Hs 578T cells at 10^-5 M incubated for 48 hrs by sulforhodamine B assay; conditions: read-out: GI
BT-549 = test: Growth inhibition of human BT549 cells at 10^-5 M incubated for 48 hrs by sulforhodamine B assay; conditions: BT-549, 48 h, read-out: GI
MDA-MB-468 = test: Growth inhibition of human MDA-MB-468 cells at 10^-5 M incubated for 48 hrs by sulforhodamine B assay; conditions: MDA-MB-468, 48 h, read-out: GI

Structure (SMILES)	inhibition of growth at 10 µM (CCRF-CEM) [%]	inhibition of growth at 10 µM (HL-60(TB)) [%]	inhibition of growth at 10 µM (MOLT-4) [%]	inhibition of growth at 10 µM (A549) [%]	inhibition of growth at 10 µM (EKVX) [%]	inhibition of growth at 10 µM (HOP-62) [%]	inhibition of growth at 10 µM (NCI-H226) [%]	inhibition of growth at 10 µM (NCI-H460) [%]	inhibition of growth at 10 µM (NCI-H522) [%]	inhibition of growth at 10 µM (COLO 205) [%]	inhibition of growth at 10 µM (HCC 2998) [%]	inhibition of growth at 10 µM (HCT-116) [%]	inhibition of growth at 10 µM (HCT-15) [%]	inhibition of growth at 10 µM (HT-29) [%]	inhibition of growth at 10 µM (KM12) [%]	inhibition of growth at 10 µM (SW-620) [%]	inhibition of growth at 10 µM (SF-268) [%]	inhibition of growth at 10 µM (SF-295) [%]	inhibition of growth at 10 µM (SNB-75) [%]	inhibition of growth at 10 µM (U-251) [%]	other results
O=C1CSC2=Nc3c(sc4ccc(Cl)cc34)C(c3ccc4ccccc4c3)N12 (centres undefined)	-4.04	-2.82	13.7	4.93	7.05	6.69	16.7	-1.49	1.87	-3.73	-30.1	-7.67	1.72	-0.5	3.7	-3.91	10.3	-4.03	16.8	-7.94	inhibition of growth at 10 µM (LOX IMVI): 9.15%; inhibition of growth at 10 µM (MDA-MB-435): -5.65%; inhibition of growth at 10 µM (SK-MEL-28): -15%; inhibition of growth at 10 µM (SK-MEL-5): 2.92%; inhibition of growth at 10 µM (UACC-257): 1.52%; inhibition of growth at 10 µM (IGROV-1): 10.4%; inhibition of growth at 10 µM (OVCAR-4): 3.47%; inhibition of growth at 10 µM (OVCAR-5): 1.49%; inhibition of growth at 10 µM (NCI/ADR-RES): -1.46%; inhibition of growth at 10 µM (786-0): 2.84%; inhibition of growth at 10 µM (ACHN): 7.81%; inhibition of growth at 10 µM (CAKI-1): 27.5%; inhibition of growth at 10 µM (UO-31): 37.4%; inhibition of growth at 10 µM (DU-145): -8.09%; inhibition of growth at 10 µM (MCF7): 27.3%; inhibition of growth at 10 µM (Hs-578T): -0.18%; inhibition of growth at 10 µM (BT-549): -8.05%; inhibition of growth at 10 µM (MDA-MB-468): 2.47%
O=[N+]([O-])c1cccc(C2NC(N3CCOCC3)=Nc3c2sc2ccc(Cl)cc32)c1 (centres undefined)	-3.36	-10.4	1.35	-1.35	16.4	9.52	14.4	4.82	3.46	-6.02	-6.02	6.8	-7.82	-2.72	4.2	-1.57	3.84	-4.89	10.7	1.11	inhibition of growth at 10 µM (LOX IMVI): 3.74%; inhibition of growth at 10 µM (MDA-MB-435): -6.59%; inhibition of growth at 10 µM (SK-MEL-28): -22.1%; inhibition of growth at 10 µM (SK-MEL-5): 4.38%; inhibition of growth at 10 µM (UACC-257): -6.32%; inhibition of growth at 10 µM (IGROV-1): 25%; inhibition of growth at 10 µM (OVCAR-4): 1.77%; inhibition of growth at 10 µM (OVCAR-5): -1.26%; inhibition of growth at 10 µM (NCI/ADR-RES): -3.21%; inhibition of growth at 10 µM (786-0): -5.37%; inhibition of growth at 10 µM (ACHN): 10.4%; inhibition of growth at 10 µM (CAKI-1): 27.7%; inhibition of growth at 10 µM (UO-31): 41.8%; inhibition of growth at 10 µM (DU-145): -13.7%; inhibition of growth at 10 µM (MCF7): 23.1%; inhibition of growth at 10 µM (Hs-578T): 1.47%; inhibition of growth at 10 µM (BT-549): -6.2%; inhibition of growth at 10 µM (MDA-MB-468): -5.77%
O=C1Nc2c(sc3ccc(Cl)cc23)C(c2ccccc2O)N1 (centres undefined)	-4.19	1.61	14.7	-1.35	21.9	13.9	18.7	6.65	16	-9.33	-15.3	4.28	2	-3.51	-2.4	-1.05	7.91	3.22	27.4	4.41	inhibition of growth at 10 µM (LOX IMVI): -0.62%; inhibition of growth at 10 µM (MDA-MB-435): -3.03%; inhibition of growth at 10 µM (SK-MEL-28): -7.33%; inhibition of growth at 10 µM (SK-MEL-5): 4.49%; inhibition of growth at 10 µM (UACC-257): 9.85%; inhibition of growth at 10 µM (IGROV-1): 19.7%; inhibition of growth at 10 µM (OVCAR-4): 9.71%; inhibition of growth at 10 µM (OVCAR-5): 1.92%; inhibition of growth at 10 µM (NCI/ADR-RES): 1.65%; inhibition of growth at 10 µM (786-0): 1.65%; inhibition of growth at 10 µM (ACHN): 9.18%; inhibition of growth at 10 µM (CAKI-1): 18.5%; inhibition of growth at 10 µM (UO-31): -18.6%; inhibition of growth at 10 µM (DU-145): -8.18%; inhibition of growth at 10 µM (MCF7): -8.18%; inhibition of growth at 10 µM (Hs-578T): 3.74%; inhibition of growth at 10 µM (BT-549): 4.41%; inhibition of growth at 10 µM (MDA-MB-468): 0.19%
